Test results from PMC6269038, “A Novel Class of Selective Acetylcholinesterase Inhibitors: Synthesis and Evaluation of (E)-2-(Benzo[d]thiazol-2-yl)-3-heteroarylacrylonitriles” (Molecules, 2012).
Values joined by “and” are separate entries in the source; they are usually repeats but may differ in a detail not shown here. Identical values can stand only once.

Legend:
[1] = molecular target: T1, butyrylcholinesterase (BuChE) from equine serum (Equus caballus, UniProt P81908); assay: BuChE inhibition, Ellman method, 96-well plates; format: biochemical; conditions: average from three independent experiments, ^c = IC50 greater than 0.5 mg/mL
T1 construct: an AChE/BuChE solution (50 μL, 0.25 unit/mL) from Electroporus electricus and equine serum, respectively; from tissue; host or cells: equine serum
T1 sequence (P81908 whole entry): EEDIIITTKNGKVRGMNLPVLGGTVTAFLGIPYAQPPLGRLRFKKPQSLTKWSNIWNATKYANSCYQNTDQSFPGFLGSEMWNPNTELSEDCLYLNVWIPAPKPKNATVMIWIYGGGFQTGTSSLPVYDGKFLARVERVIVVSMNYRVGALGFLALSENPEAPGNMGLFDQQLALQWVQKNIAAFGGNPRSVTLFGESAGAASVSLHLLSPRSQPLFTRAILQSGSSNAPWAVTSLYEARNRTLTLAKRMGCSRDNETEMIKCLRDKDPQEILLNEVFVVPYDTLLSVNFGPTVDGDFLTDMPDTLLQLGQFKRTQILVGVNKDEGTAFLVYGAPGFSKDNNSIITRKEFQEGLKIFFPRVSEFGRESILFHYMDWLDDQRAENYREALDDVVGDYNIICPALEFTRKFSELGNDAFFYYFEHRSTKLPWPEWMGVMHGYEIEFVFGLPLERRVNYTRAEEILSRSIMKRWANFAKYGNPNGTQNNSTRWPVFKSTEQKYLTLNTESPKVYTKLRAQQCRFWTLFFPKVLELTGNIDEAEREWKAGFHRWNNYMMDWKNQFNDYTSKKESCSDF

[2] = molecular target: AChE (Electrophorus electricus) (Electrophorus electricus, UniProt O42275); assay: biochemical; conditions: for IC50: AChE from Electrophorus electricus, average from three independent experiments, ^c = IC50 greater than 0.5 mg/mL
Sequence of AChE (Electrophorus electricus) (O42275 24-633): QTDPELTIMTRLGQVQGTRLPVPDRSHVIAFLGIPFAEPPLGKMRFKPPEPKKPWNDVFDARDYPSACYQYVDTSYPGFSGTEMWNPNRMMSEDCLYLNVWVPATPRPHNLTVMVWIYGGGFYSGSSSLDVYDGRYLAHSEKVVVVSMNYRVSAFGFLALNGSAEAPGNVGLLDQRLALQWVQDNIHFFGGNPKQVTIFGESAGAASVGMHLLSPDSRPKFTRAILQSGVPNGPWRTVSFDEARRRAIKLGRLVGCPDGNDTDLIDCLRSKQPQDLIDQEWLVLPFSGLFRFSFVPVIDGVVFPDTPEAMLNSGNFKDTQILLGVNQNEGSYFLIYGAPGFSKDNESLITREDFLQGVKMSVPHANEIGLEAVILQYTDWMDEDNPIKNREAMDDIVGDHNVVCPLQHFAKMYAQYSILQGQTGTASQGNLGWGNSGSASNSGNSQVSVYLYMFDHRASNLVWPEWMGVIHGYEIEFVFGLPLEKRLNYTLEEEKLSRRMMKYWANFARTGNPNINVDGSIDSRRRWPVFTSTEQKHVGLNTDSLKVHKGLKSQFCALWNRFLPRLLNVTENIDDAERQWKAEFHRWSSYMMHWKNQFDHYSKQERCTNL

[3] = molecular target: AChE (Electrophorus electricus, UniProt O42275); assay: Kinetic characterization of AChE inhibition (Lineweaver-Burk, Ellman's method); format: biochemical; conditions: substrate acetylthiocholine; for type of AChE inhibition: Lineweaver-Burk plots, AChE 0.02U; for Vmax: in presence of inhibitor, nonlinear regression
Sequence of AChE (O42275 24-633): as above
Method: The kinetics of this new class of AChE inhibitors were studied in detail using compounds 7f and 7g as examples. The nature of AChE inhibition, caused by these two compounds, was investigated by the graphical analysis of steady-state inhibition data (Figure 2A,B). […] The values of Km and Vmax were calculated by nonlinear regression according to studies by Abell et al., where Vmax was maintained at the same value while Km value was increased.
Figure 2 Lineweaver-Burk plot of AChE (0.02U) with substrate acetylthiocholine, in the absence and presence of inhibitors 7g (A), 7f (B).
Kinetic characterization of AChE was performed by means of Ellman’s method. […]. Enzyme kinetic characterization studies were performed under same incubation conditions as described above using acetylthiocholine as substrate and DTNB was used as chromophoric reagent. A parallel control with no inhibitor in the mixture was used for comparison. Each concentration was analyzed in triplicate; and Lineweaver-Burk (1/V vs. 1/[S]) plot was constructed using Sigma Plot 10.0 version software.

Compound	IC50 [1] [mM]	IC50 [2]	type of AChE inhibition [3]	Vmax [3]	Selectivity for AChE (selectivity index) ([2]; defined as IC50 (BuChE)/IC50 (AChE))
N#C/C(=C\c1ccco1)c1nc2ccccc2s1 [7i, (E)-2-(Benzo[d]thiazol-2-yl)-3-(2-furyl)acrylonitrile]	1.883 ± 0.0008	> 1.98 mM	–	–	–
N#C/C(=C\c1ccc(-c2ccccc2)cc1)c1nc2ccccc2s1 [7j, (E)-2-(Benzo[d]thiazol-2-yl)-3-(1,1'-biphenyl-4-yl)acrylonitrile]	1.273 ± 0.0007	> 1.48 mM	–	–	–
N#C/C(=C\c1cc(-c2ccccc2)on1)c1nc2ccccc2s1 [7b, (E)-2-(Benzo[d]thiazol-2-yl)-3-(5-phenylisoxazol-3-yl)acrylonitrile]	1.3966 ± 0.0008	1.179 ± 0.0005 mM	–	–	–
N#C/C(=C\c1ncc[nH]1)c1nc2ccccc2s1 [7e, (E)-2-(Benzo[d]thiazol-2-yl)-3-(1H-imidazol-2-yl)acrylonitrile]	> 1.98	0.303 ± 0.0008 mM	–	–	–
N#C/C(=C\c1ccc(N2CCOCC2)cc1)c1nc2ccccc2s1 [7d, (E)-2-(Benzo[d]thiazol-2-yl)-3-(4-morpholin-4-ylphenyl)acrylonitrile]	> 1.44	0.504 ± 0.001 mM	–	–	–
N#C/C(=C\c1ccccn1)c1nc2ccccc2s1 [7k, (E)-2-(Benzo[d]thiazol-2-yl)-3-(pyridin-2-yl)acrylonitrile]	> 1.9	> 1.9 mM	–	–	–
N#C/C(=C\c1ccc(-c2ccc(Cl)cc2)o1)c1nc2ccccc2s1 [7g, (E)-2-(Benzo[d]thiazol-2-yl)-3-[5-(4-chlorophenyl)furan-2-yl]acrylonitrile]	0.474	0.064 ± 0.0006 mM	competitive inhibitors	0.2236	7.40
N#C/C(=C\c1cccnc1)c1nc2ccccc2s1 [7f, (E)-2-(Benzo[d]thiazol-2-yl)-3-(pyridin-3-yl)acrylonitrile]	> 2.29	0.155 mM and 0.103 mM	competitive inhibitors	0.07078	–
Cc1cc(/C=C(\C#N)c2nc3ccccc3s2)no1 [7a, (E)-2-(Benzo[d]thiazol-2-yl)-3-(5-methylisoxazol-3-yl)acrylonitrile]	> 1.87	1.274 ± 0.0007 mM	–	–	–
N#C/C(=C\c1cc(-c2ccc(F)cc2)on1)c1nc2ccccc2s1 [7c, (E)-2-(Benzo[d]thiazol-2-yl)-3-[5-(4-fluorophenyl)isoxazol-3-yl]acrylonitrile]	> 1.44	0.699 ± 0.0003 mM	–	–	–
Cc1nn(-c2ccccc2)c(Cl)c1/C=C(\C#N)c1nc2ccccc2s1 [7h, (E)-2-(Benzo[d]thiazol-2-yl)-3-(5-chloro-3-methyl-1-phenyl-1H-pyrazol-4-yl)acrylonitrile]	> 1.33	> 1.33 mM	–	–	–
